# ChEMBL document CHEMBL6182836 (RSC Med Chem, 2025)
# pIC50: −log10 of the molar value. Calls of active or inactive are those of the source. The calls are words filed in the database; no cut-off is given here.
# Experiments:
# Acetylcholinesterase [1] = biological target: Acetylcholinesterase (Homo sapiens, UniProt P22303); experiment: Inhibition of AChE (unknown origin)
# Cholinesterase [2] = biological target: Cholinesterase (Homo sapiens, UniProt P06276); experiment: Inhibition of BChE (unknown origin)
# Sequence of Cholinesterase (Homo sapiens, UniProt P06276) (P06276 whole entry): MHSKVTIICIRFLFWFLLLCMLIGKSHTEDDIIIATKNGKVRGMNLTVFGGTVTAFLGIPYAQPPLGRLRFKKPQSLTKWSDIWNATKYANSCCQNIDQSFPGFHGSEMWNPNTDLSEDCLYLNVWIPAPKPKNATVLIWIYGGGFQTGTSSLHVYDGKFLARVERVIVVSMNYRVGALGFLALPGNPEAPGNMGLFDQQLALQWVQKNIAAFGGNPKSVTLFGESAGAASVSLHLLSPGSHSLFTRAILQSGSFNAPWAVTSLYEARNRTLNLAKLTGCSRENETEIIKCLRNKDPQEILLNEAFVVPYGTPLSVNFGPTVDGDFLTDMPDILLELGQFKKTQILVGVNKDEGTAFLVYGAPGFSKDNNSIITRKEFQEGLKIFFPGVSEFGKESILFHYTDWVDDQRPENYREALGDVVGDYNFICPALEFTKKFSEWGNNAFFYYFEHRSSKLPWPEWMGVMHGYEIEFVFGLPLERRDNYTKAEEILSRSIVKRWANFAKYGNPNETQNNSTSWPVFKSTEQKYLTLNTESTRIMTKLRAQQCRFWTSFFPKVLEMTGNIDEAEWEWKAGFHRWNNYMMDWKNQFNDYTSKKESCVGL
# Acetylcholinesterase [3] = biological target: Acetylcholinesterase (Electrophorus electricus, UniProt O42275); experiment: Inhibition of electric eel AChE using acetylthiocholine iodide as substrate measured for 30 mins by Ellman's method; details: for pIC50: read-out: IC50
# Sequence of Acetylcholinesterase (Electrophorus electricus, UniProt O42275) (O42275 whole entry): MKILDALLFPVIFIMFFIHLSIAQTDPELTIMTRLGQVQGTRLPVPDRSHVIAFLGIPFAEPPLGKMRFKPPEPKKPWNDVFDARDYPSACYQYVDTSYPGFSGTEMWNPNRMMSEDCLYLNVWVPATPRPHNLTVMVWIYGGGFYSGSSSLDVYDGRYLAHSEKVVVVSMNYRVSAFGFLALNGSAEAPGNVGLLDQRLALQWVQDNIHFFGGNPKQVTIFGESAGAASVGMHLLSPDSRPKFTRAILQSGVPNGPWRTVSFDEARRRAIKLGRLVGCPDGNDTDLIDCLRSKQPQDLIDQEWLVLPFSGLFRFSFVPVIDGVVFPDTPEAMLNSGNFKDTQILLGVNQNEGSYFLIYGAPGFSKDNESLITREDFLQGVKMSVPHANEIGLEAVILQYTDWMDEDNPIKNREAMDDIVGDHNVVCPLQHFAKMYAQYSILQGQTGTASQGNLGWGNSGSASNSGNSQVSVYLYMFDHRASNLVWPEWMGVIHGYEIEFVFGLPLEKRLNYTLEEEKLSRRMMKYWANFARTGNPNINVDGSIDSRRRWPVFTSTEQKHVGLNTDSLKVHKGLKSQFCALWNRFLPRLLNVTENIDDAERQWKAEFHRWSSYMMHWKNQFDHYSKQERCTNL
# [4] = Neurotoxicity in Wistar rat primary cortical neurons assessed as cell viability at 0.001 to 100 uM incubated for 24 hrs by LDH assay; type: toxicity, cell-based; details: cortical neurone, dose 0.001-100 µM
# [5] = Neurotoxicity in Wistar rat primary cortical neurons assessed as inhibition of cell viability incubated for 24 hrs by LDH assay; type: toxicity, cell-based, Cortical neurone; details: for IC50 at 24 h: Wistar, primary cortical neurons; for Activity: cortical neurone, 24 h
# Cortical neurone [6] = experiment: Neuroprotective activity against glutamate-induced excitotoxicity in Wistar rat primary cortical neurons assessed as cell death at 1 uM pretreated with compound for 24 hrs followed by incubation with glutamate for 20 mins by LDH assay relative to control; type: functional; details: time 1460 min, 24.33 h
# Cortical neurone [7] = experiment: Neuroprotective activity against glutamate-induced excitotoxicity in Wistar rat primary cortical neurons assessed as cell death at 1 uM pretreated with glutamate followed by compound addition measured after 24 hrs by LDH assay relative to control; type: functional
# Cholinesterase [8] = biological target: Cholinesterase (Equus caballus, UniProt P81908)
# Sequence of Cholinesterase (Equus caballus, UniProt P81908) (P81908 whole entry): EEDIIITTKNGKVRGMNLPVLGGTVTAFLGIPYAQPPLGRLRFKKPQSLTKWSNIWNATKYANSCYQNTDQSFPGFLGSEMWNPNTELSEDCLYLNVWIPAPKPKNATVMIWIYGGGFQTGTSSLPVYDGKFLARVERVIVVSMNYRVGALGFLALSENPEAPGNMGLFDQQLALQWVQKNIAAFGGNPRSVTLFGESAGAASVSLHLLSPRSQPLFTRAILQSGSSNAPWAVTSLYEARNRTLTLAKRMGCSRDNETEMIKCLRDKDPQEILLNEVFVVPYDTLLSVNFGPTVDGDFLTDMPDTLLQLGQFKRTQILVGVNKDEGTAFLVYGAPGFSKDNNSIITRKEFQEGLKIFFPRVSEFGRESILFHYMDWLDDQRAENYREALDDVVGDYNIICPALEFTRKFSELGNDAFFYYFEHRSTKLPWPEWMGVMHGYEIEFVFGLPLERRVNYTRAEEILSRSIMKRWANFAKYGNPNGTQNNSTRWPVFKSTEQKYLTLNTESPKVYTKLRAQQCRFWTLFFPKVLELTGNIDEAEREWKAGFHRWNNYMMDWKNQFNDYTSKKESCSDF
# Description: Inhibition of equine serum BuChE using butyrylthiocholine iodide as substrate measured for 30 mins by Ellman's method
# [9] = Neuroprotective activity against glutamate-induced excitotoxicity in Wistar rat hippocampal neurons assessed as increase in intracellular ATP level pretreated with glutamate followed by compound addition measured after 24 hrs by CellTiter-Glo assay (reference value: 70 %); type: functional, Hippocampal neuron
# [10] = Neuroprotective activity against glutamate-induced excitotoxicity in Wistar rat hippocampal neurons assessed as increase in intracellular ATP level pretreated with compound for 24 hrs followed by incubation with glutamate for 20 mins by CellTiter-Glo assay (reference value: 70 %); type: functional, Hippocampal neuron; details: time 1460 min; 24.33 h
# [11] = Stability in human plasma assessed as compound remaining at 200 uM incubated for 240 mins by HPLC-UV analysis; type: ADME, cell-free; details: read-out: Stability
# [12] = Stability in human plasma at pH 7.4 assessed as half life at 200 uM measured up to 240 mins by HPLC-UV analysis; type: ADME, cell-free
# Astrocyte [13] = experiment: Neuroprotective activity against glutamate-induced excitotoxicity in Wistar rat astrocytes co-cultured with neurons assessed as protection against cell injury at 10 uM pretreated with compound for 24 hrs followed by incubation with glutamate for 20 mins by fluorescence based analysis; type: functional; details: time 1460.0 min
# Astrocyte [14] = experiment: Neuroprotective activity against glutamate-induced excitotoxicity in Wistar rat astrocytes assessed as decrease in LDH release at 10 uM pretreated with glutamate followed by compound addition measured after 24 hrs by spectrophotometric analysis relative to control; type: functional; parameters: scale not given: the % may be the effect or the level left
# [15] = Stability in human plasma at 200 uM measured after 240 mins by HPLC-UV analysis; type: ADME, cell-free; details: 4 h
# Astrocyte [16] = experiment: Neuroprotective activity against glutamate-induced excitotoxicity in Wistar rat astrocytes co-cultured with neurons assessed as prevention of disruption of cytoskeleton at 10 uM pretreated with glutamate followed by compound addition measured after 24 hrs by fluorescence based analysis; type: functional, cell-based
# Astrocyte [17] = experiment: Neuroprotective activity against glutamate-induced excitotoxicity in Wistar rat astrocytes co-cultured with neurons assessed as prevention of retraction of dendritic spines at 10 uM pretreated with glutamate followed by compound addition measured after 24 hrs by fluorescence based analysis; type: functional, cell-based
# Astrocyte [18] = experiment: Neuroprotective activity against glutamate-induced excitotoxicity in Wistar rat astrocytes co-cultured with neurons assessed as prevention of collapse of dendritic spines at 10 uM pretreated with glutamate followed by compound addition measured after 24 hrs by fluorescence based analysis; type: functional, cell-based
# [19] = Cytotoxicity against human HepG2 cells assessed as fold decrease in GI50 incubated for 24 hrs by SRB assay relative to tacrine; type: toxicity, cell-based; details: read-out: RatioGI50
# Astrocyte [20] = experiment: Neuroprotective activity against glutamate-induced excitotoxicity in Wistar rat astrocytes co-cultured with neurons assessed as decrease in LDH release at 10 uM pretreated with compound for 24 hrs followed by glutamate addition for 20 mins by spectrophotometric analysis relative to control; type: functional; parameters: scale not given: the % may be the effect or the level left; details: time 1460 min, 24.33 h
# Astrocyte [21] = experiment: Neuroprotective activity against glutamate-induced excitotoxicity in Wistar rat astrocytes co-cultured with neurons assessed as prevention of disruption of cytoskeleton at 10 uM pretreated with compound for 24 hrs followed by incubation with glutamate for 20 mins by fluorescence based analysis; type: functional, cell-based; details: time 1460.0 min
# Astrocyte [22] = experiment: Neuroprotective activity against glutamate-induced excitotoxicity in Wistar rat astrocytes co-cultured with neurons assessed as prevention of retraction of dendritic spines at 10 uM pretreated with compound for 24 hrs followed by incubation with glutamate for 20 mins by fluorescence based analysis; type: functional, cell-based; details: time 1460.0 min
# Astrocyte [23] = experiment: Neuroprotective activity against glutamate-induced excitotoxicity in Wistar rat astrocytes co-cultured with neurons assessed as prevention of collapse of dendritic spines at 10 uM pretreated with compound for 24 hrs followed by incubation with glutamate for 20 mins by fluorescence based analysis; type: functional, cell-based; details: time 1460.0 min
# [24] = Stability in human plasma assessed as compound degradation at 200 uM measured after 240 mins by HPLC-UV analysis; type: ADME, cell-free; details: read-out: Drug degradation
# HepG2 [25] = details: human, hepg2, 24 h
# Description: Cytotoxicity against human HepG2 cells assessed as total growth inhibition incubated for 24 hrs by SRB assay
# HepG2 [26] = details: human, hepg2, 24 h; remark: listed apart in the source
# Description: Cytotoxicity against human HepG2 cells assessed as cell population mortality incubated for 24 hrs by SRB assay
# [27] = mouse, astrocyte, 24 h
# Description: Blood-brain barrier transwell (BBB-T) permeability in mouse bEnd.3 cells (luminal side) to C57BL/6 mouse astrocyte (abluminal side) measured after 24 hrs by Transwell assay
# in vitro = details: human, HepG2 cells
# Description: Cytotoxicity against human HepG2 cells assessed as inhibition of cell growth incubated for 24 hrs by SRB assay
# Sequence of Acetylcholinesterase (Homo sapiens, UniProt P22303) (P22303 whole entry): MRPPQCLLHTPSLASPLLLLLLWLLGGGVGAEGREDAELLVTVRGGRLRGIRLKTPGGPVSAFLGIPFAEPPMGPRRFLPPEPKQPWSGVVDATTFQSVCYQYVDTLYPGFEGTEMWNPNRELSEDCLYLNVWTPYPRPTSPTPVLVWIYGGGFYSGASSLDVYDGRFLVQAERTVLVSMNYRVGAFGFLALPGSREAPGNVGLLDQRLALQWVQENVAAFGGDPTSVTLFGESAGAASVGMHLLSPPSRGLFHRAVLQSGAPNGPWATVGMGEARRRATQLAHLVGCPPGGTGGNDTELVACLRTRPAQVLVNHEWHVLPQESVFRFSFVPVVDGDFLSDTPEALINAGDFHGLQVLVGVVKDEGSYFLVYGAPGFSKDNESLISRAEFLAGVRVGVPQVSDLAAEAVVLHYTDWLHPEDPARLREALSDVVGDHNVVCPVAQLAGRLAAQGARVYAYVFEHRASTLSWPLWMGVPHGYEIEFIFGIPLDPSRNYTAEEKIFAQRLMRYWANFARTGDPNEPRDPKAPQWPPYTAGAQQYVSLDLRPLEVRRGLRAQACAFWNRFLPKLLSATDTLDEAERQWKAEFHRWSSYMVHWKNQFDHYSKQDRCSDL
structure (smiles),measurement,setting,value
COc1cc2c(cc1OC)CC(CN1CCN(CCCNc3c4c(nc5cc(Cl)ccc35)C[C@H]3C=C(C)C[C@@H]4C3)CC1)C2,pIC50,Acetylcholinesterase [1],8.58
same,pIC50,Cholinesterase [2],6.46
O=C(NCCCNc1c2c(nc3ccccc13)CCC2)c1cnc(Cl)c(Cl)c1,pIC50,Acetylcholinesterase [1],7.28
same,pIC50,Cholinesterase [2],6.80
Cc1cc(=O)[nH]c2c1C(=O)C(NCNc1c3c(nc4ccccc14)CCCC3)=CC2=O,pIC50,Acetylcholinesterase [1],7.95
same,pIC50,Cholinesterase [2],6.74
COc1ccc(OC)c(C(C#N)N2CCN(CC(=O)Nc3c4c(nc5ccccc35)CCC4)CC2)c1 (racemic),IC50,Acetylcholinesterase [3],Not_active
same,Activity,[4],Non-toxic
same,IC50 at 24 h,[5],427 µM
same,Activity,[5],Toxic
same,Activity,Cortical neurone [6],63.52%
same,Activity,Cortical neurone [7],30.83%
same,pIC50,Cholinesterase [8],5.76
COc1ccc(C(C#N)N2CCN(CC(=O)Nc3c4c(nc5ccccc35)CCC4)CC2)c(OC)c1 (racemic),IC50,Acetylcholinesterase [3],Not_active
same,Activity,[4],Non-toxic
same,IC50 at 24 h,[5],364 µM
same,Activity,[5],Toxic
same,Activity,Cortical neurone [6],63.15%
same,Activity,Cortical neurone [7],44.97%
same,pIC50,Cholinesterase [8],6.04
COc1cccc(C(C#N)N2CCN(CC(=O)Nc3c4c(nc5ccccc35)CCC4)CC2)c1OC (racemic),pIC50,Acetylcholinesterase [3],6.36
same,Activity,[4],Non-toxic
same,IC50 at 24 h,[5],476 µM
same,Activity,[5],Toxic
same,Activity,Cortical neurone [6],71.05%
same,Activity,Cortical neurone [7],47.45%
same,Activity,[9],51.85%
same,Activity,[10],31.11%
same,"remaining at 4 h, 200 µM",[11],52.4%
same,half-life at 200 µM,[12],288 min
same,Activity,Astrocyte [13],Active
same,Activity,Astrocyte [14],~52%
same,Stability,[15],Stable
same,Activity,Astrocyte [16],Active
same,Activity,Astrocyte [17],Active
same,Activity,Astrocyte [18],Active
same,selectivity ratio at 24 h,[19],8
same,Activity,Astrocyte [20],~33%
same,Activity,Astrocyte [21],Active
same,Activity,Astrocyte [22],Active
same,Activity,Astrocyte [23],Active
same,"metabolised at 4 h, 200 µM",[24],~48%
same,pIC50,Cholinesterase [8],6.51
same,TGI,HepG2 [25],188.16 µM
same,LC50,HepG2 [26],> 200 µM
same,permeability,[27],58%
same,GI50 at 24 h,in vitro,93.5 µM
COc1ccc(C(C#N)N2CCN(CC(=O)Nc3c4c(nc5ccccc35)CCC4)CC2)cc1OC (racemic),IC50,Acetylcholinesterase [3],Not_active
same,Activity,[4],Non-toxic
same,IC50 at 24 h,[5],260 µM
same,Activity,[5],Toxic
same,Activity,Cortical neurone [6],58.28%
same,Activity,Cortical neurone [7],38.98%
same,pIC50,Cholinesterase [8],6.36
COc1ccc(C(C#N)N2CCN(CC(=O)Nc3c4c(nc5ccccc35)CCC4)CC2)cc1 (racemic),IC50,Acetylcholinesterase [3],Not_active
same,Activity,[4],Non-toxic
same,IC50 at 24 h,[5],436 µM
same,Activity,[5],Toxic
same,Activity,Cortical neurone [6],40.71%
same,Activity,Cortical neurone [7],28.81%
same,pIC50,Cholinesterase [8],6.19
CN(C)c1ccc(C(C#N)N2CCN(CC(=O)Nc3c4c(nc5ccccc35)CCC4)CC2)cc1 (racemic),pIC50,Acetylcholinesterase [3],6.32
same,Activity,[4],Non-toxic
same,IC50 at 24 h,[5],218 µM
same,Activity,[5],Toxic
same,Activity,Cortical neurone [6],34.63%
same,Activity,Cortical neurone [7],22.03%
same,pIC50,Cholinesterase [8],6.39
COc1cc(OC)cc(C(C#N)N2CCN(CC(=O)Nc3c4c(nc5ccccc35)CCC4)CC2)c1 (racemic),IC50,Acetylcholinesterase [3],Not_active
same,Activity,[4],Non-toxic
same,IC50 at 24 h,[5],298 µM
same,Activity,[5],Toxic
same,Activity,Cortical neurone [6],62.67%
same,Activity,Cortical neurone [7],35.59%
same,pIC50,Cholinesterase [8],6.16
CC12CC3CC(C)(C1)CC(N)(C3)C2 [MEMANTINE],IC50 at 24 h,[5],272 µM
same,Activity,Cortical neurone [6],36.84%
same,Activity,Cortical neurone [7],46.61%
same,Activity,[9],44.44%
same,Activity,[10],10.37%
